Test in all cases: growth of human tumour cells (NCI), 48 h
Assay [1] relates to 786-0.
The subject of assay [2] is CAKI-1.
For assay [3], the system named is CCRF-CEM.
Assay [4] concerns HCT-116.
The test system of assay [5] is HOP-62.
Assay [6] relates to HOP-92.
Assay [7] concerns M14.
In assay [8] the test system is NCI-H226.
In assay [9] the test system is NCI-H522.
Assay [10] deals with NCI/ADR-RES.
Assay [11] has as its system OVCAR-5.
Assay [12] concerns PC-3.
For assay [13], the system named is RXF 393.
The test system of assay [14] is SF-539.
For assay [15], the system named is SK-MEL-5.
For assay [16], the system named is SN12C.
Assay [17] has as its system SR.
In assay [18] the test system is TK-10.
Assay [19] relates to UACC-257.
For assay [20], the system named is UACC-62.

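Each compound was tested at five concentrations against cells in 96-well plates for 48 hours. GI50: concentration for 50% inhibition of growth.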 Activity calls are given as the source filed them. No stated cut-off is given here; in the data, active = GI50 up to about 1.1 µM and inactive = higher.

With `N#CCc1nc(-c2cc3ccccc3oc2=O)cs1`, the GI50 was > 100 µM (inactive) in assay [1]; > 100 µM (inactive) in assay [2]; 30.5 µM (inactive) in assay [3]; 80.5 µM (inactive) in assay [4]; 62.7 µM (inactive) in [5]; 41.7 µM (inactive) in assay [6]. For the same compound, the GI50 is 35.6 µM (inactive) in [7]; 36.8 µM (inactive) in assay [8]; 15.9 µM (inactive) in assay [9]; 79.6 µM (inactive) in assay [10]; > 100 µM (inactive) in assay [11]; 29.8 µM (inactive) in [12]. Moreover, the GI50 is > 100 µM (inactive) in assay [13]; 83.9 µM (inactive) in assay [14]; 26.4 µM (inactive) in [15]; > 100 µM (inactive) in assay [16]; 43.6 µM (inactive) in assay [17]; > 100 µM (inactive) in assay [18]. Besides, the GI50 in assay [19] was 27.1 µM (inactive); in [20], 18.7 µM (inactive).

As to `CC(=O)N(C(C)=O)c1cc2c3c(c1)CCCN3CCC2`, the GI50 in [1], in [2], in assay [3], in [4], in [5] and in assay [6] was > 10 µM (inactive) each time. Besides, the GI50 in [7], in assay [8], in assay [9], in assay [10], in assay [11] and in assay [12] was > 10 µM (inactive) throughout. For the same compound, the GI50 in assay [13], in [14], in assay [15], in [16], in [17] and in [18] was > 10 µM (inactive) in each case. Besides, the GI50 in assay [19] and in assay [20] was > 10 µM (inactive) in each case.

With `COC(=O)C1=C(C(=O)OC)SC(=C2SCSC3=C2SC(C(=O)OC)=C(C(=O)OC)C32SC3=C(CCCC3)S2)S1`, the GI50 is 74.1 µM (inactive) in [1]; > 100 µM (inactive) in [2]; > 100 µM (inactive) in [3]; > 100 µM (inactive) in assay [4]; > 100 µM (inactive) in assay [5]; 56.2 µM (inactive) in assay [6]. Moreover, the GI50 in assay [7], in assay [8], in [9], in assay [10], in assay [11] and in assay [12] was > 100 µM (inactive) each time. The GI50 in [13] is 19.4 µM (inactive); in assay [14] it was 44.5 µM (inactive); in assay [15], > 100 µM (inactive); in assay [16], > 100 µM (inactive); in assay [17], > 100 µM (inactive); in assay [18] it was 32.4 µM (inactive). In addition, the GI50 in assay [19] and in [20] was > 100 µM (inactive) each time.

Consider `COC(=O)CCCC(=O)/C(=N\Nc1ccc(Cl)cc1)Nc1c(Cl)cccc1Cl`, for which the GI50 is 86.1 µM (inactive) in [1]; > 100 µM (inactive) in [2]; 26.2 µM (inactive) in assay [3]; 38.9 µM (inactive) in assay [4]; > 67.6 µM (inactive) in assay [5]; 45 µM (inactive) in assay [6]. For the same compound, the GI50 is > 92.5 µM (inactive) in assay [7]; 45.2 µM (inactive) in assay [8]; 28.4 µM (inactive) in assay [9]; > 74.1 µM (inactive) in assay [10]; > 100 µM (inactive) in assay [11]; 24 µM (inactive) in assay [12]. The GI50 in [13] was 8.69 µM (inactive); in assay [14], > 100 µM (inactive); in assay [15], 32.8 µM (inactive); in [16], > 100 µM (inactive); in [17], 20.5 µM (inactive); in [18], > 74.1 µM (inactive). Further, the GI50 in [19] was 59 µM (inactive); in assay [20], 60 µM (inactive).

`CC[C@@]1(O)C(=O)OCc2c1cc1n(c2=O)Cc2c-1nc1ccccc1c2Cl`: the GI50 in assay [1] was < 0.01 µM (active); in assay [2], < 0.01 µM (active); in assay [3], < 0.01 µM (active); in assay [4] it was 0.0168 µM (active); in [5] it was < 0.01 µM (active); in assay [6], 0.0724 µM (active). In addition, the GI50 is < 0.0133 µM (active) in [7]; < 0.01 µM (active) in [8]; < 0.0127 µM (active) in assay [9]; < 0.01 µM (active) in [10]; 0.0811 µM (active) in [11]; < 0.0214 µM (active) in assay [12]. Moreover, the GI50 is < 0.0132 µM (active) in assay [13]; < 0.01 µM (active) in [14]; < 0.0141 µM (active) in [15]; < 0.01 µM (active) in assay [16]; < 0.01 µM (active) in assay [17]; 6.21 µM (inactive) in assay [18]. The GI50 is 0.112 µM (active) in assay [19] and < 0.01 µM (active) in assay [20].

As for `O=C(NC1=C(Cl)C(=O)c2ccccc2C1=O)C(=O)c1c(O)c2ccccc2oc1=O`, the GI50 is 6.24 µM (inactive) in assay [1]; 9.66 µM (inactive) in assay [2]; 5.94 µM (inactive) in assay [3]; 2.56 µM (inactive) in [4]; 5.46 µM (inactive) in assay [5]; 12.4 µM (inactive) in assay [6]. Moreover, the GI50 in assay [7] was 1.83 µM (inactive); in assay [8], 9.18 µM (inactive); in [9], 3.69 µM (inactive); in assay [10] it was 3.13 µM (inactive); in assay [11], 11.5 µM (inactive); in assay [12], 2.88 µM (inactive). The GI50 was 5.62 µM (inactive) in assay [13]; 2.8 µM (inactive) in [14]; 0.368 µM (active) in assay [15]; 3.7 µM (inactive) in assay [16]; 3.04 µM (inactive) in assay [17]; 17.5 µM (inactive) in assay [18]. Also, the GI50 was 1.51 µM (inactive) in assay [19] and 2.3 µM (inactive) in [20].

For `C=CCN1C(=O)/C(=C/c2ccc(C)cc2)N=C1SC/C=C/C`, the GI50 was 29.9 µM (inactive) in assay [1]; > 100 µM (inactive) in [2]; 26.7 µM (inactive) in assay [3]; 18.8 µM (inactive) in assay [4]; > 100 µM (inactive) in assay [5]; 22.6 µM (inactive) in assay [6]. Moreover, the GI50 in assay [7] was 45.6 µM (inactive); in assay [8], > 100 µM (inactive); in [9], 29 µM (inactive); in assay [10] it was 47.3 µM (inactive); in assay [11] it was 43.6 µM (inactive); in assay [12], 33 µM (inactive). Also, the GI50 in assay [13] is 11.5 µM (inactive); in assay [14], 77.3 µM (inactive); in assay [15], 22.7 µM (inactive); in assay [16] it was 28.1 µM (inactive); in assay [17], 17.2 µM (inactive); in assay [18] it was > 100 µM (inactive). Besides, the GI50 is 32.7 µM (inactive) in assay [19] and 39.5 µM (inactive) in [20].

For the compound `c1ccc(C/C(=N\Nc2nc3ccccc3o2)c2ccccn2)cc1`, the GI50 in assay [1] was < 0.0193 µM (active); in assay [2], 0.0879 µM (active); in assay [3], < 0.0122 µM (active); in assay [4] it was < 0.01 µM (active); in assay [5], 0.0354 µM (active); in assay [6], 0.0281 µM (active). Further, the GI50 is 0.0382 µM (active) in [7]; < 0.0483 µM (active) in assay [8]; 0.191 µM (active) in assay [9]; 0.0246 µM (active) in assay [10]; < 0.01 µM (active) in [11]; < 0.01 µM (active) in [12]. The GI50 is 0.0851 µM (active) in [13]; 0.114 µM (active) in assay [14]; 0.0769 µM (active) in assay [15]; 0.0569 µM (active) in assay [16]; 0.0424 µM (active) in assay [17]; 0.0668 µM (active) in [18]. Besides, the figures for the GI50 in assay [19] and in assay [20] were 0.0775 µM (active) and 0.387 µM (active), respectively.

As to `CN(C)c1ccc(C=C2C(=O)NC(=S)NC2=O)c2ccccc12`, the GI50 in [1] was 39.8 µM (inactive); in assay [2] it was 98.9 µM (inactive); in [3], 38.6 µM (inactive); in assay [4], > 100 µM (inactive); in assay [5], > 100 µM (inactive); in [6], 25.1 µM (inactive). The GI50 in assay [7] is > 100 µM (inactive); in assay [8] it was > 100 µM (inactive); in assay [9], 18.5 µM (inactive); in assay [10] it was > 100 µM (inactive); in assay [11], > 100 µM (inactive); in [12], > 100 µM (inactive). In addition, the GI50 in assay [13] is 26.3 µM (inactive); in assay [14], 36 µM (inactive); in assay [15], > 100 µM (inactive); in assay [16] it was 68.4 µM (inactive); in [17], 33.5 µM (inactive); in [18], > 100 µM (inactive). Further, the GI50 in assay [19] and in [20] was > 100 µM (inactive) in each case.

For `Cc1nc(N)nc(N)c1N1CCN(Cc2ccccc2)CC1`, the GI50 in [1] is 4.73 µM (inactive); in [2] it was 37.1 µM (inactive); in assay [3], 16.5 µM (inactive); in [4], 4.71 µM (inactive); in assay [5] it was 42.4 µM (inactive); in assay [6], 35.3 µM (inactive). Moreover, the GI50 in assay [7] is 13.3 µM (inactive); in [8], 12.1 µM (inactive); in assay [9] it was 24.8 µM (inactive); in [10], 12.8 µM (inactive); in assay [11] it was > 37.8 µM (inactive); in assay [12], 7.48 µM (inactive). In addition, the GI50 in assay [13] is 13.4 µM (inactive); in assay [14], 27.2 µM (inactive); in assay [15] it was > 37.8 µM (inactive); in assay [16], 56.1 µM (inactive); in assay [17], 36.6 µM (inactive); in [18], 66.1 µM (inactive). Also, the GI50 was 9.64 µM (inactive) in assay [19] and 30.5 µM (inactive) in assay [20].
